For this assay, the system named is rats with middle cerebral artery occlusion (MCAO). Briefly: Body swing test, MCAO rats, dose escalation study (Example 17). The class given is in vivo, Sprague Dawley rat. As to conditions: groups diverged prior to treatment initiation (FIG. 13). Here is the method: Body Swing: Evaluated at Day −1 (pre-operation), Day 1, Day 7, Day 14, Day 21, Day 28, Day 30, Day 32, Day 42, Day 44, Day 46, Day 56, Day 58, Day 60. Body swing was evaluated by counting head movements to one side or the other when suspended by tail. For this test, the rat was held approximately one (1) inch from the base of its tail. It was then elevated to an inch above a surface of a table. The rat was held in the vertical axis, defined as no more than 10° to either the left or the right side. A swing was recorded whenever the rat moved its head out of the vertical axis to either side. Before attempting another swing, the rat had to return to the vertical position for the next swing to be counted. Thirty (30) total swings were counted. […] Body swing scores were expressed as a percentage of rightward over total swings. […]
4-AP was evaluated for its ability to promote functional sensorimotor improvement following ischemic stroke in rats with stable motor deficits at times remote from their ischemic events. […]
Body Swing: Evaluated at Day −1 (pre-operation), Day 1, Day 7, Day 14, Day 21, Day 28, Day 35, Day 42, Day 49, Day 56, Day 59, Day 62, Day 65, Day 70. […]
Statistical Methods: Changes from pre-treatment baseline values (Day 56) were calculated for each behavioral score at each time point assessed after dosing. […]

Our source for the Body swing performance values is patent US20160067232A1, “METHODS FOR TREATING A STROKE-RELATED SENSORIMOTOR IMPAIRMENT USING AMINOPYRIDINES” (Acorda Therapeutics, Inc., priority 2011, published 2016).

Structures are written as SMILES.

With `Nc1ccncc1` [4-aminopyridine], the Body swing performance result is “no conclusions can be drawn”.
